Experimental data: PMC4076210, “Discovery of Novel AKT Inhibitors with Enhanced Anti-Tumor Effects in Combination with the MEK Inhibitor” (PLoS ONE, 2014)

Legend:
[1] = biological target: T1, PAK4(h) (Homo sapiens, UniProt O96013); assay: Kinase panel; format: biochemical; settings: read-out: % Inhibition
T1 construct: purchased Millipore KinaseProfiler

[2] = biological target: T2, CDK1/cyclinB(h) (Homo sapiens, UniProt P06493); assay: Kinase panel; format: biochemical; settings: read-out: % Inhibition
T2 construct: purchased Millipore KinaseProfiler
T2 sequence (P06493 whole entry): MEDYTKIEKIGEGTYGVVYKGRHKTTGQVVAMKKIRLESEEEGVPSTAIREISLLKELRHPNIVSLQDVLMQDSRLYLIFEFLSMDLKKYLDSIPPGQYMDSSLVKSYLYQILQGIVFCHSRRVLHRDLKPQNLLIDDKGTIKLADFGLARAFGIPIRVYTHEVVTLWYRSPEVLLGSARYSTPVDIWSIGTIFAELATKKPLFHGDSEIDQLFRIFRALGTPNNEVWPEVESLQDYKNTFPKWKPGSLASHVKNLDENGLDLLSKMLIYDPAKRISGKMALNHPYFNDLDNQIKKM
T2 sequence (P14635 whole entry partner): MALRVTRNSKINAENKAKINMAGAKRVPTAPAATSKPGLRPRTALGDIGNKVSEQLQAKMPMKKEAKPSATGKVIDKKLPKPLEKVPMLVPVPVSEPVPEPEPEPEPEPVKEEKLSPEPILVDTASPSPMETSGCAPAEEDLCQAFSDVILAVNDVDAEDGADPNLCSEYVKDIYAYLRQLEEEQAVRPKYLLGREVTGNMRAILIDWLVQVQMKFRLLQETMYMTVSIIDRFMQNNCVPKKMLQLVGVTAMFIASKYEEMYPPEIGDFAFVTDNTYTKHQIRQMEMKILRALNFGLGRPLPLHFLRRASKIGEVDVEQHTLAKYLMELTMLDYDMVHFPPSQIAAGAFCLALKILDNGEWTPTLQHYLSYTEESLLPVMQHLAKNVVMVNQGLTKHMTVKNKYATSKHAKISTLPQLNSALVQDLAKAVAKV

[3] = biological target: T3, Txk(h) (Homo sapiens, UniProt P42681); assay: Kinase panel; format: biochemical; settings: read-out: % Inhibition
T3 construct: purchased Millipore KinaseProfiler
T3 sequence (P42681 1-527): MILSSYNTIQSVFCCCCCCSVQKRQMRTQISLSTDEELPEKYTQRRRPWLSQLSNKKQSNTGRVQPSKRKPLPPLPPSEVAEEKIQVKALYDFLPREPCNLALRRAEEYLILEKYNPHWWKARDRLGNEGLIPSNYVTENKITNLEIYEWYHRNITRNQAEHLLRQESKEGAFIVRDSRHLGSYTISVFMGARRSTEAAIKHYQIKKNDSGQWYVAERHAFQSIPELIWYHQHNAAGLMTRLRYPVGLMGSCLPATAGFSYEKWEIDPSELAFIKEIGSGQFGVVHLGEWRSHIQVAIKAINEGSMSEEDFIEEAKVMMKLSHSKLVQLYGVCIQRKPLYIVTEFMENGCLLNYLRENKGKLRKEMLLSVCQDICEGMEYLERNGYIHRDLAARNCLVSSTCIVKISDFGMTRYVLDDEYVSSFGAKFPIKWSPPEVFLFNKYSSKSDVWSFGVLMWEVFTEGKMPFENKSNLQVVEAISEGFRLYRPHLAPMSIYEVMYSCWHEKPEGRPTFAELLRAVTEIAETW

[4] = biological target: T4, EphA5(h) (Homo sapiens, UniProt P54756); assay: Kinase panel; format: biochemical; settings: read-out: % Inhibition
T4 construct: purchased Millipore KinaseProfiler
T4 sequence (P54756 25-1037): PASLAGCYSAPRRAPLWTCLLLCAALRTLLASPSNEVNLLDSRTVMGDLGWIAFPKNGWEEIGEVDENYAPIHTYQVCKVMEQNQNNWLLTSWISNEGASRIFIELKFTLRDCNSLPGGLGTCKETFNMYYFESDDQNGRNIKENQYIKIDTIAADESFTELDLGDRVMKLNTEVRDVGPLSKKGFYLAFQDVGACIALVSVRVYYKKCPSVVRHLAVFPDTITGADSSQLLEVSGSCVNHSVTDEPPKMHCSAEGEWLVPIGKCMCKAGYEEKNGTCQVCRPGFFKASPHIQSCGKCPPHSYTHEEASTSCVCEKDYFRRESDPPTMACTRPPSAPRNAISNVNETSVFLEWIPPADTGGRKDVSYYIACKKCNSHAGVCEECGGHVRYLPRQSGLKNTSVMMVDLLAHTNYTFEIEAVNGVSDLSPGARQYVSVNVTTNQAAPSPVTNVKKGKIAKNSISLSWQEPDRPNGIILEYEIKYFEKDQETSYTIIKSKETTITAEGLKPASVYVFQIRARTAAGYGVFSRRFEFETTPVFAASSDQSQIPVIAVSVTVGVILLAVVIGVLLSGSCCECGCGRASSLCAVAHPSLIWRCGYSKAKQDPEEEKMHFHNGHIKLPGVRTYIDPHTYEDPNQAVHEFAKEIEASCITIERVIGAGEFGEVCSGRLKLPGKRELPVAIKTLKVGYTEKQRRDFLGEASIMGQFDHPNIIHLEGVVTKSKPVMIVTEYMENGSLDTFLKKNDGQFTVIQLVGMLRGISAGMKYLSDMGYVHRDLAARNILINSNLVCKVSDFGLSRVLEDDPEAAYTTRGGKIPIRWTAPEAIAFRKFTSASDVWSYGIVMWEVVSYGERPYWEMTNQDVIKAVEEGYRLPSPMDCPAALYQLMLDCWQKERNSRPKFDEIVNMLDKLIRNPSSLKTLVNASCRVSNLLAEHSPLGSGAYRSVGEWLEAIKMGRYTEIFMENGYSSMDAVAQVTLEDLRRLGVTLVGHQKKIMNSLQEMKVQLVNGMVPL

[5] = biological target: T5, JNK2α2(h) (Homo sapiens, UniProt P45984); assay: Kinase panel; format: biochemical; settings: read-out: % Inhibition
T5 construct: purchased Millipore KinaseProfiler
T5 sequence (P45984 whole entry): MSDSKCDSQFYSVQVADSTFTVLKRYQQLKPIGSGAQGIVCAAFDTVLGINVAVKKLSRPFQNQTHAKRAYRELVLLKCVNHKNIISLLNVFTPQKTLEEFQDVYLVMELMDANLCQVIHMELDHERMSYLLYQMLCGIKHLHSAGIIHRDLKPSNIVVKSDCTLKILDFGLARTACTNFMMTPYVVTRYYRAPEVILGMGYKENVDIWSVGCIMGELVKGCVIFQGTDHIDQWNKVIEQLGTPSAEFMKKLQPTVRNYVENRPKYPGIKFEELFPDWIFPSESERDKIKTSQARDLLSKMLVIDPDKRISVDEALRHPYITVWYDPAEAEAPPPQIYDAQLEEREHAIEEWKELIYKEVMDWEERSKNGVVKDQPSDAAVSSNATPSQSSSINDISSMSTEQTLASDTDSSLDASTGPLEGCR

[6] = test system: hematological tumor cell lines; assay: 3-day proliferation assay (CellTiter-Glo); format: cell-based, human; settings: for IC50: Homo sapiens
Procedure: Various tumor cell lines were obtained from different sources including; the American Type Cell Culture Collection, the Developmental Therapeutics Program, the National Cancer Institute, the German Resource Center for Biological Material and the European Collection of Animal Cell Cultures. Cell lines were typically grown in […] containing 10% FBS. Some cell lines were grown in media specified by the vendor. A 3-day proliferation assay using CellTiter-Glo (CTG, Promega) was performed to measure the growth inhibition by the compounds at 0–30 µM. Cell growth was determined relative to untreated (DMSO) controls. EC50's were calculated from inhibition curves using a 4- or 6-parameter fitting algorithm in the Assay Client application.

T1 sequence (O96013 whole entry): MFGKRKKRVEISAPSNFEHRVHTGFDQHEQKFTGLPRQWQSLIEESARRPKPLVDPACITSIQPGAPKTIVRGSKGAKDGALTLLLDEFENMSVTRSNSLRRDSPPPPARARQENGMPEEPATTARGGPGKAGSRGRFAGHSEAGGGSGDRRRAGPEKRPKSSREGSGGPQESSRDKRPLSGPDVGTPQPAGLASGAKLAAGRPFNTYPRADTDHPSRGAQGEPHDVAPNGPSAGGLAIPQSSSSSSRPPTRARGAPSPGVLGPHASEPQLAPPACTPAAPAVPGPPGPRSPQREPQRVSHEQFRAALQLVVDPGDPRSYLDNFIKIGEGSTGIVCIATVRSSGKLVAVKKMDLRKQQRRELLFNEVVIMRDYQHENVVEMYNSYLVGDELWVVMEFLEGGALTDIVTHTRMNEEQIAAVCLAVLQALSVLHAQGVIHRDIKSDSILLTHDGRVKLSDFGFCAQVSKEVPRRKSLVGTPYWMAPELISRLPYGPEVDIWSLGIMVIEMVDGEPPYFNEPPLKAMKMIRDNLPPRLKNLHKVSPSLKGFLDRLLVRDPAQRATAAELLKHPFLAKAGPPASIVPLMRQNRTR

Compound: Cn1ncc(Cl)c1-c1cc(C(=O)N[C@H](CN)Cc2ccc(F)c(F)c2)oc1Cl [GSK2141795]
- inhibition at 0.5 µM ([1]; 0.5 µM): 4%
- inhibition at 10 µM ([1]; 10 µM): 39%
- inhibition at 0.5 µM ([2]; 0.5 µM): -5%
- inhibition at 10 µM ([2]; 10 µM): 12%
- inhibition at 0.5 µM ([3]; 0.5 µM): 11%
- inhibition at 10 µM ([3]; 10 µM): 30%
- inhibition at 0.5 µM ([4]; 0.5 µM): -6%
- inhibition at 10 µM ([4]; 10 µM): 10%
- inhibition at 0.5 µM ([5]; 0.5 µM): -15%
- inhibition at 10 µM ([5]; 10 µM): -23%
- hematological cell lines sensitive (EC50<1 µM) ([6]; 112 cell lines, 3 days, CTG): 81%
- IC50 ([6]; 1A2, 1A2 cell line, Burkitt's Lymphoma, B Cell): 93 nM
- IC50 ([6]; 697 cell line, ALL, pre-B Cell): 300 nM
- IC50 ([6]; ARH-77, ARH77 cell line, Multiple Myeloma, B Cell): 155 nM
- IC50 ([6]; B-cell, BDCM cell line, AML, B Cell): 14 nM
- IC50 ([6]; B-cell, CESS cell line, AML, B Cell): 9 nM
- IC50 ([6]; B-cell, CRO-AP3 cell line, Primary Effusion Lymphoma (PEL), B Cell): 113 nM
- IC50 ([6]; B-cell, EHEB cell line, CLL, B Cell): 51 nM
- IC50 ([6]; B-cell, HKB-11 cell line, Burkitt's Lymphoma, B Cell): 52 nM
- IC50 ([6]; B-cell, HS-Sultan cell line, Burkitt's Lymphoma, B Cell): 226 nM
- IC50 ([6]; B-cell, KARPAS-231 cell line, ALL, B Cell): 36 nM
- IC50 ([6]; B-cell, MC/CAR cell line, Multiple Myeloma, B Cell): 40 nM
- IC50 ([6]; B-cell, MN60 cell line, ALL, B Cell): 653 nM
- IC50 ([6]; B-cell, Namalwa cell line, Burkitt's Lymphoma, B Cell): 300 nM
- IC50 ([6]; B-cell, SD-1 cell line, ALL, B Cell): 15 nM
- IC50 ([6]; B-cell, Tanoue cell line, ALL, B Cell): 1460 nM
- IC50 ([6]; BC1, BC1 cell line, Burkitt's Lymphoma, B Cell): 465 nM
- IC50 ([6]; BC-3, BC3 cell line, Burkitt's Lymphoma, B Cell): 3130 nM
- IC50 ([6]; BV-173, BV173 cell line, CML, pre-B Cell): 860 nM
- IC50 ([6]; CA46, CA46 cell line, Burkitt's Lymphoma, B Cell): 948 nM
- IC50 ([6]; CCRF-CEM, CCRFCEM cell line, ALL, T Cell): 146 nM
- IC50 ([6]; CCRF-SB, CCRFSB cell line, ALL, B Cell): 20 nM
- IC50 ([6]; CEM/C1, CEM/C1 cell line, ALL, T Cell): 30 nM
- IC50 ([6]; CEM/C2, CEM/C2 cell line, ALL, T Cell): 22 nM
- IC50 ([6]; CML-T1, CML-T1 cell line, CML, T Cell): 5230 nM
- IC50 ([6]; CRO-AP5, CRO-AP5 cell line, Primary Effusion Lymphoma (PEL), B Cell): 34 nM
- IC50 ([6]; DB, DB cell line, Non-Hodgkin's Lymphoma, B Cell): 5220 nM
- IC50 ([6]; DG-75, DG75 cell line, Burkitt's Lymphoma, B Cell): 14800 nM
- IC50 ([6]; DOHH-2, DOHH-2 cell line, Non-Hodgkin's Lymphoma, B Cell): 10.5 nM
- IC50 ([6]; Daudi, DAUDI cell line, Burkitt's Lymphoma, B Cell): 269 nM
- IC50 ([6]; EB1, EB1 cell line, Burkitt's Lymphoma, B Cell): 49 nM
- IC50 ([6]; EB2, EB2 cell line, Burkitt's Lymphoma, B Cell): 256 nM
- IC50 ([6]; EB-3, EB3 cell line, Burkitt's Lymphoma, B Cell): 1760 nM
- IC50 ([6]; EM-2, EM2 cell line, CML, Unspecified): 1650 nM
- IC50 ([6]; Farage cell line, Non-Hodgkin's Lymphoma, B Cell): 103 nM
- IC50 ([6]; GA-10, GA-10 cell line, Burkitt's Lymphoma, B Cell): 17 nM
- IC50 ([6]; GDM-1, GDM-1 cell line, AML, Monoblast): 3070 nM
- IC50 ([6]; HD-MY-Z cell line, Hodgkin's Lymphoma, Unspecified): 8290 nM
- IC50 ([6]; HEL 92.1.7, HEL92.1.7 cell line, AML, Erythroleukemia): 7760 nM
- IC50 ([6]; HH, HH cell line, Non-Hodgkin's Lymphoma (CTCL), T Cell): 85 nM
- IC50 ([6]; HL-60, HL-60 cell line, AML, Myeloblast): 3720 nM
- IC50 ([6]; HSB2, HSB2 cell line, ALL, T Cell): 576 nM
- IC50 ([6]; HT, HT cell line, Burkitt's Lymphoma, B Cell): 93 nM
- IC50 ([6]; HuT78, HuT78 cell line, Non-Hodgkin's Lymphoma (CTCL), T Cell): 147 nM
- IC50 ([6]; J.gamma1, J.Gamma-1 cell line, ALL, T Cell): 21 nM
- IC50 ([6]; JIYOYE, JIYOYE cell line, Burkitt's Lymphoma, B Cell): 536 nM
- IC50 ([6]; JM1, JM1 cell line, Burkitt's Lymphoma, pre-B Cell): 212 nM
- IC50 ([6]; JVM13, JVM13 cell line, CLL, B Cell): 84 nM
- IC50 ([6]; JVM-2, JVM2 cell line, CLL, B Cell): 13 nM
- IC50 ([6]; JVM-3, JVM-3 cell line, CLL, B Cell): 8480 nM
- IC50 ([6]; Jurkat, Jurkat cell line, ALL, T Cell): 17 nM
- IC50 ([6]; K562, K562 cell line, CML, Lymphoblast): 9780 nM
